Experimental data as given in article PMC5106528, “High-Throughput Toxicity and Phenotypic Screening of 3D Human Neural Progenitor Cell Cultures on a Microarray Chip Platform” (Stem Cell Reports, 2016).
Where two headings read alike, the source gives them in different places. Marks after values point to notes of the source that are not given here.

Assays:
[1] = tested on: differentiating ReNcell VM NPCs; assay: cells; assay type: cell-based, human; conditions: for IC50 / Proliferation Effects Differentiating log(IC50 ± SEM): differentiating, 72 hr exposure, EdU for the final 24 hr, sigmoidal fit
From the text: (§1) Differential toxic effects could be explained, in part, as a consequence of the different proliferative states between the undifferentiated and differentiating NPCs. To this end, the thymidine analog, 5-ethynyl-2′-deoxyuridine (EdU), was used to detect actively proliferating cells on-chip following exposure to compounds or vehicle control to determine dose-response effects on proliferation (Figures 5B and S5), and sigmoidal curves were fit, when appropriate, to obtain IC50 values (Table 1). We found ∼60% of undifferentiated NPCs incorporated EdU over a 24-hr period as opposed to ∼3% of differentiating cultures.
(§2) Undifferentiated and differentiating cultures were screened for toxicity as described previously, except that after the first 48 hr of exposure 10 μM EdU (Click-iT EdU, Invitrogen) was added to the compound-containing medium for the final 24 hr. After 72 hr, on-chip cultures were fixed and processed as described previously for on-chip immunofluorescence; however, instead of antibody staining the cultures were incubated with solution containing Alexa Fluor 488-azide for 30 min as specified in the product manual. Cultures were then rinsed with DPBS for 30 min, incubated in DPBS with Hoechst 33342 (5 μg/mL) for 30 min, and washed in DPBS for 30 min before proceeding with a trehalose wash and drying as described previously. Nuclei were selected using Cellomics software from blue channel images to create a mask, which was used for identification of fluorescently labeled EdU in the green channel for quantification of actively proliferating cells over the 24-hr EdU exposure.

[2] = tested on: differentiating ReNcell VM NPCs; assay: cells
Procedure: (§3) On-chip cultures of undifferentiated and 10-day differentiated NPCs were stamped with WellChips filled with compound-containing solutions and incubated for 72 hr prior to viability assessment. Vehicle-control normalized viabilities were plotted against compound concentration to generate dose-response plots (Figures 5A and S4). […] The sigmoidal fits for undifferentiated and differentiating NPCs were compared to assess whether differential sensitivities (i.e., different IC50 values) existed for the screened compounds.
(§4) Cell viability was determined in 3D on-chip cultures using a mammalian cell viability assay (LIVE/DEAD, Invitrogen). Prior to the assay, dead cell controls were prepared with 30 min incubation in a WellChip containing either […] 0.5% (w/v) saponin-DMEM/F12 medium in its microwells. […] After staining, PillarChips were rinsed twice with warm DPBS and incubated in DPBS containing 50 mM trehalose (Sigma) for 10 min before rapid drying with nitrogen and storage in the dark. Dried PillarChips were imaged with a Thermo Scientific Cellomics ArrayScan VTI high-content system.
(§5) Undifferentiated and differentiated microchip cultures were prepared as described above. Chemicals were purchased from Sigma or the NIH Small Molecule Repository (Table S2). Concentrated stocks were prepared and diluted into ReNcell Maintenance Medium to prepare the highest screened concentration solution for each compound. Four-fold serial dilutions were made in ReNcell Maintenance Medium, with all solutions having a final concentration of 0.5% or 1% DMSO (v/v) and 20 μg/mL Matrigel. For undifferentiated cultures, the solutions also contained 20 ng/mL of EGF and FGF2. These solutions were printed into WellChips, covered with a gas-permeable membrane, and warmed at 37°C for at least 5 min before stamping with cells. Each WellChip contained six compounds each at six concentrations (n = 10 biological replicates for each concentration) and the appropriate medium containing 0.5% or 1% DMSO for vehicle and dead controls (n = 32 biological replicates per control). PillarChip cultures were incubated with compounds for 72 hr with daily medium exchange to freshly prepared WellChips containing compounds at the appropriate concentrations. […] On-chip toxicity screens were repeated three times for undifferentiated and differentiated cultures. […]

[3] = tested on: undifferentiated ReNcell VM NPCs; assay: cells
Procedure: as §3, §4, §5

[4] = tested on: undifferentiated ReNcell VM NPCs; assay: On-chip proliferation assay (EdU incorporation), undifferentiated NPCs; assay type: cell-based, human; conditions: for IC50 / Proliferation Effects Undifferentiating log(IC50 ± SEM): undifferentiated, 72 hr exposure, EdU for the final 24 hr, sigmoidal fit; for Effect on proliferation of NPC cultures (in words): state not specified
From the text: as §1, §2

[5] = Homo sapiens, ReNcell VM, read-out: Proliferation Effects Differentiating IC50
[6] = Homo sapiens, ReNcell VM, read-out: Proliferation Effects Differentiating log(IC50 ± SEM) (converted)
[7] = Homo sapiens, ReNcell VM, read-out: Viability Effects Differentiating IC50
[8] = Homo sapiens, ReNcell VM, read-out: Viability Effects Differentiating log(IC50 ± SEM) (converted)
[9] = Homo sapiens, ReNcell VM, 72 h, read-out: Viability Effects Undifferentiated IC50
[10] = Homo sapiens, ReNcell VM, 72 h, read-out: Viability Effects Undifferentiated log(IC50 ± SEM) (converted)
[11] = Homo sapiens, ReNcell VM, read-out: Proliferation Effects Undifferentiating IC50
[12] = Homo sapiens, ReNcell VM, read-out: Proliferation Effects Undifferentiating log(IC50 ± SEM) (converted)
[13] = 10-day differentiated (−EGF/FGF2), 72 hr exposure, 1% Matrigel on-chip, sigmoidal fit
[14] = read-out: Viability Effects Differentiating IC50, 10-day differentiated (−EGF/FGF2), 72 hr exposure, 1% Matrigel on-chip, sigmoidal fit
[15] = read-out: Viability Effects Undifferentiated IC50, undifferentiated (+EGF/FGF2), 72 hr exposure, 1% Matrigel on-chip, sigmoidal fit
[16] = undifferentiated (+EGF/FGF2), 72 hr exposure, 1% Matrigel on-chip, sigmoidal fit
[17] = differentiating cultures, 72 hr
[18] = undifferentiated cultures, 72 hr

## O=c1[nH]cc(F)c(=O)[nH]1 [5-Fluorouracil]
[1]; [5]
  IC50: 1.82 µM
[1]; [6]
  IC50: 1.82 µM
[1]; differentiating cultures
  Effect on EdU incorporation (in words): sharp decrease to no EdU incorporation
[2]
  Effect on cell viability (in words): minimally impacting
[2]; [7]
  IC50: 2.3 µM
[2]; [8]
  IC50: 2.24 µM
[2]; human, 72 h
  Normalized viability at Cmax, Differentiating, Mean ± SEM: 0.81 ± 0.17
[3]
  Effect on cell viability (in words): nearly complete killing
[3]; [9]
  IC50: 2.3 µM
[3]; [10]
  IC50: 2.29 µM
[3]; human, 72 h
  Normalized viability at Cmax, Undifferentiated, Mean ± SEM: 0.15 ± 0.10
[4]; [11]
  IC50: 1.35 µM
[4]; [12]
  IC50: 1.38 µM
[4]
  Effect on proliferation of NPC cultures (in words): inhibit the proliferation
[4]; undifferentiated cultures
  Effect on EdU incorporation (in words): sharp decrease to no EdU incorporation

## CC(=O)Nc1ccc(O)cc1 [Acetaminophen]
[1]; [5]
  IC50: 18200 µM
[1]; [6]
  IC50: 18200 µM
[2]; [7]
  IC50: 18000 µM
[2]; [8]
  IC50: 20000 µM
[2]; human, 72 h
  Normalized viability at Cmax, Differentiating, Mean ± SEM: -0.1 ± 0.03
[3]
  Cytotoxicity (in words): no cytotoxicity at functionally relevant concentrations
[3]; [9]
  IC50: 1400 µM
[3]; [10]
  IC50: 1260 µM
[3]; human, 72 h
  Normalized viability at Cmax, Undifferentiated, Mean ± SEM: -0.16 ± 0.07
[4]; [11]
  IC50: 1000 µM
[4]; [12]
  IC50: 1040 µM

## CC(COc1ccccc1Cc1ccccc1)N1CCCCC1 (stereo not shown) [Benproperone, Benproperine]
[2]
  Normalized viability at Cmax, Differentiating, Mean ± SEM: 0.71 ± 0.30
[3]
  Normalized viability at Cmax, Undifferentiated, Mean ± SEM: 0.06 ± 0.52

## [Cl][Cd][Cl] [Cadmium Chloride]
[1]
  Proliferation Effects Differentiating log(IC50 ± SEM): 1.18 log(μM)
[1]; read-out: Proliferation Effects Differentiating IC50
  IC50: 15 µM
[2]; [13]
  Viability Effects Differentiating log(IC50 ± SEM): 0.88 ± 0.27 log(μM)
[2]; [14]
  IC50: 7.6 µM
[3]; [15]
  IC50: 3.7 µM
[3]; [16]
  Viability Effects Undifferentiated log(IC50 ± SEM): 0.57 ± 0.3 log(μM)
[4]
  Proliferation Effects Undifferentiating log(IC50 ± SEM): 0.93 log(μM)
[4]; read-out: Proliferation Effects Undifferentiating IC50
  IC50: 8.6 µM

## CC1(C)C[C@@H]1C(=O)N/C(=C\CCCCSC[C@H](N)C(=O)O)C(=O)O [Cilastatin]
[2]; [17]
  Effect on cell viability (in words): had no effect
[3]; [18]
  Effect on cell viability (in words): had no effect
[4]
  Effect on proliferation of NPC cultures (in words): did not

## Nc1ccn([C@@H]2O[C@H](CO)[C@@H](O)[C@@H]2O)c(=O)n1 [Cytosine Arabinoside]
[1]
  Proliferation Effects Differentiating log(IC50 ± SEM): < −1 log(μM)
[2]
  Normalized viability at Cmax, Differentiating, Mean ± SEM: 0.47 ± 0.12
[2]; [13]
  Viability Effects Differentiating log(IC50 ± SEM): 0.55 ± 0.55 log(μM)
[2]; [14]
  IC50: 3.5 µM
[3]
  Normalized viability at Cmax, Undifferentiated, Mean ± SEM: 0.40 ± 0.03
[3]; [15]
  IC50: 0.33 µM
[3]; [16]
  Viability Effects Undifferentiated log(IC50 ± SEM): −0.48 ± 0.17 ^b log(μM)
[4]
  Proliferation Effects Undifferentiating log(IC50 ± SEM): < −1 log(μM)

## C[C@@H]1C[C@H]2[C@@H]3CCC4=CC(=O)C=C[C@]4(C)[C@@]3(F)[C@@H](O)C[C@]2(C)[C@@]1(O)C(=O)CO [Dexamethasone]
[2]; human, 72 h
  Normalized viability at Cmax, Differentiating, Mean ± SEM: 1.08 ± 0.16
[3]; human, 72 h
  Normalized viability at Cmax, Undifferentiated, Mean ± SEM: 1.35 ± 0.33

## CN(C)CCOC(c1ccccc1)c1ccccc1 [Diphenhydramine]
[3]
  Cytotoxicity (in words): no cytotoxicity at functionally relevant concentrations

## COc1cccc2c1C(=O)c1c(O)c3c(c(O)c1C2=O)C[C@@](O)(C(=O)CO)C[C@@H]3O[C@H]1C[C@H](N)[C@H](O)[C@H](C)O1 [Doxorubicin]
[1]; [6]
  IC50: < 0.1 µM
[2]; [7]
  IC50: 2.7 µM
[2]; [8]
  IC50: 2.75 µM
[2]; human, 72 h
  Normalized viability at Cmax, Differentiating, Mean ± SEM: 0.11 ± 0.16
[3]; [9]
  IC50: 0.8 µM
[3]; [10]
  IC50: 0.794 µM
[3]; human, 72 h
  Normalized viability at Cmax, Undifferentiated, Mean ± SEM: 0.05 ± 0.13
[4]; [12]
  IC50: < 0.1 µM

## O=C(O)CNCP(=O)(O)O [Glyphosate]
[2]
  Normalized viability at Cmax, Differentiating, Mean ± SEM: 0.41 ± 0.14
[3]
  Normalized viability at Cmax, Undifferentiated, Mean ± SEM: 0.01 ± 0.03

## CC(=O)[O-].CC(=O)[O-].[Pb+2] [Lead Acetate]
[2]; [17]
  Effect on cell viability (in words): did not reduce cell viability
[3]; [18]
  Effect on cell viability (in words): did not reduce cell viability

## [Cl][Mn][Cl] [Manganese Chloride]
[2]; [17]
  Effect on cell viability (in words): did not reduce cell viability
[3]; [18]
  Effect on cell viability (in words): did not reduce cell viability

## CN1CCN2c3ncccc3Cc3ccccc3C2C1 (stereo not shown) [Mitrazepine, Mirtazapine]
[3]; human, 72 h
  Normalized viability at Cmax, Undifferentiated, Mean ± SEM: 1.11 ± 0.09

## O=C1CN=C(c2ccccc2)c2cc([N+](=O)[O-])ccc2N1 [Nitrazepam]
[2]
  Normalized viability at Cmax, Differentiating, Mean ± SEM: 1.07 ± 0.07
[3]
  Normalized viability at Cmax, Undifferentiated, Mean ± SEM: 1.16 ± 0.13

## C[n+]1ccc(-c2cc[n+](C)cc2)cc1 [Paraquat]
[1]; [5]
  IC50: 30 µM
[1]; [6]
  IC50: 30.2 µM
[2]
  Normalized viability at Cmax, Differentiating, Mean ± SEM: 0.05 ± 0.02
[2]; [7]
  IC50: 41 µM
[2]; [8]
  IC50: 40.7 µM
[3]
  Normalized viability at Cmax, Undifferentiated, Mean ± SEM: -0.02 ± 0.03
[3]; [9]
  IC50: 57 µM
[3]; [10]
  IC50: 63.1 µM
[4]; [11]
  IC50: 59 µM
[4]; [12]
  IC50: 58.9 µM

## Fc1ccc([C@@H]2CCNC[C@H]2COc2ccc3c(c2)OCO3)cc1 [Paroxetine]
[2]; human, 72 h
  Normalized viability at Cmax, Differentiating, Mean ± SEM: 0.30 ± 0.38
[3]; human, 72 h
  Normalized viability at Cmax, Undifferentiated, Mean ± SEM: 0.07 ± 0.13

## O=C(O)C[C@H](O)C[C@H](O)/C=C/c1c(C2CC2)nc2ccccc2c1-c1ccc(F)cc1 [Pitavistatin]
[1]; [5]
  IC50: 0.98 µM
[1]; [6]
  IC50: 0.977 µM
[2]
  Effect on cell viability (in words): did not decrease the viability
  Normalized viability at Cmax, Differentiating, Mean ± SEM: 1.16 ± 0.07
[3]
  Effect on cell viability (in words): cytotoxic only to undifferentiated NPCs
  Normalized viability at Cmax, Undifferentiated, Mean ± SEM: 0.14 ± 0.11
[3]; [9]
  IC50: 5.4 µM
[3]; [10]
  IC50: 5.37 µM
[4]; [11]
  IC50: 2 µM
[4]; [12]
  IC50: 1.95 µM
[4]
  Effect on proliferation of NPC cultures (in words): inhibited proliferation

## CC1=C(/C=C/C(C)=C/C=C/C(C)=C/C(=O)O)C(C)(C)CCC1 [Retinoic Acid]
[1]; [5]
  IC50: 22 µM
[1]; [6]
  IC50: 22.4 µM
[1]; differentiated cultures, at lower concentrations
  Increase of the average number of proliferating cells: greater than 3 fold
[2]; [7]
  IC50: 47 µM
[2]; [8]
  IC50: 50.1 µM
[2]; human, 72 h
  Normalized viability at Cmax, Differentiating, Mean ± SEM: 0.50 ± 0.13
[3]; [9]
  IC50: 0.74 µM
[3]; [10]
  IC50: 0.741 µM
[3]; human, 72 h
  Normalized viability at Cmax, Undifferentiated, Mean ± SEM: 0.55 ± 0.16
[4]; [11]
  IC50: 15 µM
[4]; [12]
  IC50: 14.8 µM

## CCCC(CCC)C(=O)O [Valproic Acid]
[2]; human, 72 h
  Normalized viability at Cmax, Differentiating, Mean ± SEM: 1.09 ± 0.10
[3]; human, 72 h
  Normalized viability at Cmax, Undifferentiated, Mean ± SEM: 0.99 ± 0.08
